Assay [1] concerns the target T1, Breakpoint cluster region protein (Homo sapiens, UniProt P11274).
T1 sequence (P11274 whole entry): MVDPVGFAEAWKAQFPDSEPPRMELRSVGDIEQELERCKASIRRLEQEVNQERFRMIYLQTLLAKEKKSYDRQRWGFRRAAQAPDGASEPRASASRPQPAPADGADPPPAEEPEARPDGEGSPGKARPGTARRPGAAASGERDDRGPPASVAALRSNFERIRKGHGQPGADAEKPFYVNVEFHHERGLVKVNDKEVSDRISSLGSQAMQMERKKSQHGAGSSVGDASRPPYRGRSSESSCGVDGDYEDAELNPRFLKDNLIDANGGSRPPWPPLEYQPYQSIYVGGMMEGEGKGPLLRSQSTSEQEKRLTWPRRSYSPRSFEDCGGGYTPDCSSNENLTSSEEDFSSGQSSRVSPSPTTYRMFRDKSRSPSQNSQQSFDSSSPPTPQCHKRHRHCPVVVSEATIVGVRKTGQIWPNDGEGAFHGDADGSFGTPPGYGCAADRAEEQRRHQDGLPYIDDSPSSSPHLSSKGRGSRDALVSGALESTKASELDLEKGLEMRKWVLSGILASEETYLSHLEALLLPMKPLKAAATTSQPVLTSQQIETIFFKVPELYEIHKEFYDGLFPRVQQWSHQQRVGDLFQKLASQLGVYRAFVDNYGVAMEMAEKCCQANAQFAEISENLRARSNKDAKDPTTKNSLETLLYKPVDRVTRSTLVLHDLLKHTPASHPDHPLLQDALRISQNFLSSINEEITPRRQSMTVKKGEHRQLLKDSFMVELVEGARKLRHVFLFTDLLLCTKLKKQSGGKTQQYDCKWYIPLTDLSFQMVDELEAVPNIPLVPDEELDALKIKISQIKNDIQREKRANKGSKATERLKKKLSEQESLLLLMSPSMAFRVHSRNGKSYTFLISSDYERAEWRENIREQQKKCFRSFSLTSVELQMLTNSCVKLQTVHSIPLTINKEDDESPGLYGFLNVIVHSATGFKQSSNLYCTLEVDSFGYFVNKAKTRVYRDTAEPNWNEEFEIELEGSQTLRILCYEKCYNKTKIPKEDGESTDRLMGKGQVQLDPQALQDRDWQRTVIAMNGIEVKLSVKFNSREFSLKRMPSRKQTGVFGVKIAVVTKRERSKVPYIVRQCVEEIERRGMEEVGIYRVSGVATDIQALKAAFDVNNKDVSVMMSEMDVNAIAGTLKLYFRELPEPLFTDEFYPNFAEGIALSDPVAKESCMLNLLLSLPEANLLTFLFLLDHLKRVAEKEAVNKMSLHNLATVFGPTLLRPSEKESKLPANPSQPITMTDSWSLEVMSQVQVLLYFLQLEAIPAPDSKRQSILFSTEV

Assay [2] addresses Cyclin-dependent kinase 7 (Homo sapiens, UniProt P50613).
The target in assay [3] is Inosine-5'-monophosphate dehydrogenase 2 (Homo sapiens, UniProt P12268).
Assay [4] concerns the target T2, Dual specificity mitogen-activated protein kinase kinase 3 (Homo sapiens, UniProt P46734).
T2 sequence (P46734 whole entry): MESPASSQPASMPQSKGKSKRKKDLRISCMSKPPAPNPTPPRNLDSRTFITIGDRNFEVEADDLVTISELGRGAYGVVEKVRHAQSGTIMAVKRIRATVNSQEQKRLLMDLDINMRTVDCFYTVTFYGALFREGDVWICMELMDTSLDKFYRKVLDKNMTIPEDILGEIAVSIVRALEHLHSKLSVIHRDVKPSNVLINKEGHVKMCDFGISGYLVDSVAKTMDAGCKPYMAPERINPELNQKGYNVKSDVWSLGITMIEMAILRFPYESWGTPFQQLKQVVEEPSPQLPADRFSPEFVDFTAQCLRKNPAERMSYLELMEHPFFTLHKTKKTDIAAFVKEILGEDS

The target in assay [5] is Mitogen-activated protein kinase 11 (Homo sapiens, UniProt Q15759).
Chain of Mitogen-activated protein kinase 11 (Q15759 whole entry): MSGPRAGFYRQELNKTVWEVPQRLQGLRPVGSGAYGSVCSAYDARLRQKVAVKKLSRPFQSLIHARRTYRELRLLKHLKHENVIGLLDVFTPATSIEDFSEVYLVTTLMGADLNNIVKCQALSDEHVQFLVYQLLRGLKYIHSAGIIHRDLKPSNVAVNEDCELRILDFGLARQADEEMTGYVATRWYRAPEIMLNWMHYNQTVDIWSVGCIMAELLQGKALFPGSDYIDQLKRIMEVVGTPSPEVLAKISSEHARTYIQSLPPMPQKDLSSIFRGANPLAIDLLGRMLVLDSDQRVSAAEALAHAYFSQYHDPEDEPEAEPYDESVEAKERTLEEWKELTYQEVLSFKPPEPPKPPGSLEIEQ
Assay [6] concerns the target T3, Serine/threonine-protein kinase Nek9 (Homo sapiens, UniProt Q8TD19).
T3 sequence (Q8TD19 whole entry): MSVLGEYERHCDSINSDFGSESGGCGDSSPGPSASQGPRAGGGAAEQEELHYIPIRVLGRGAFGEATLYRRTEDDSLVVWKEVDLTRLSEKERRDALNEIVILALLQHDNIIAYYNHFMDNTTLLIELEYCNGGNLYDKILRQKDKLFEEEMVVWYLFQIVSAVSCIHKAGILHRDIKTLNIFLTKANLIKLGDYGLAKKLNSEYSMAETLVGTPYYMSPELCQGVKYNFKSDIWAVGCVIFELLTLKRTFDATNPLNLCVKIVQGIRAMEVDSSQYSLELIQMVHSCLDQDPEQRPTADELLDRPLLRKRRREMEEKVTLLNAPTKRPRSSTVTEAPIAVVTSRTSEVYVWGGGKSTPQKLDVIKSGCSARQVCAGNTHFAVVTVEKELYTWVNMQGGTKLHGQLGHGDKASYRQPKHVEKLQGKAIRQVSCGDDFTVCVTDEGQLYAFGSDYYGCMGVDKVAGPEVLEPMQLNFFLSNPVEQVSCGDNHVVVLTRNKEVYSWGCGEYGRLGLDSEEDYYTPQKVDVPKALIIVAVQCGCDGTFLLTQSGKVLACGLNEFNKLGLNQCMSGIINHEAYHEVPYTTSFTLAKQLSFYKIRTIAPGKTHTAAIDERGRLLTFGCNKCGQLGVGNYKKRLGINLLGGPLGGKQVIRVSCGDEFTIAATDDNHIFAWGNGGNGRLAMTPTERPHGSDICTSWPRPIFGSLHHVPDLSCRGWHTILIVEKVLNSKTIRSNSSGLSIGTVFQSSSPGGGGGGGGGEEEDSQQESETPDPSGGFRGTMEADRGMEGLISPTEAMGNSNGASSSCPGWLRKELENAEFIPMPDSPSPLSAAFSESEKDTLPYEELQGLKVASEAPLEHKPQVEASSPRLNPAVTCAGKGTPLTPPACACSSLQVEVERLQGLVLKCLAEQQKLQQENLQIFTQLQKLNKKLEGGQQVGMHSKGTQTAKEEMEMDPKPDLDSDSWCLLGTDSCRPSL

For assay [7], the target named is cAMP-dependent protein kinase catalytic subunit beta (Homo sapiens, UniProt P22694).
The target of assay [8] is Protein kinase C alpha type (Homo sapiens, UniProt P17252).
The target in assay [9] is Ras-related protein Rab-6A (Homo sapiens, UniProt P20340).
Chain of Ras-related protein Rab-6A (P20340 whole entry): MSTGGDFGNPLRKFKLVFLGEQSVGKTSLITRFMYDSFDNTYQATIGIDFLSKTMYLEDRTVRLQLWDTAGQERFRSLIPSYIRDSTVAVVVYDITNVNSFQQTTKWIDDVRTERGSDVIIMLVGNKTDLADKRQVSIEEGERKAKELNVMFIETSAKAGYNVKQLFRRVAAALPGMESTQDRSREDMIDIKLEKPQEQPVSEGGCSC
Assay [10] has as its target U5 small nuclear ribonucleoprotein 200 kDa helicase (Homo sapiens, UniProt O75643).
A further assay concerns the target DNA topoisomerase 2-beta (Homo sapiens, UniProt Q02880).

As a reminder, the Kd is a measure of binding affinity in units of concentration.

Structures can show the parent of a compound that is named as a salt. Active and inactive are the calls of the source.
Further: in the data inactive means no Kd found up to 30 µM.

Chain of U5 small nuclear ribonucleoprotein 200 kDa helicase (O75643 whole entry): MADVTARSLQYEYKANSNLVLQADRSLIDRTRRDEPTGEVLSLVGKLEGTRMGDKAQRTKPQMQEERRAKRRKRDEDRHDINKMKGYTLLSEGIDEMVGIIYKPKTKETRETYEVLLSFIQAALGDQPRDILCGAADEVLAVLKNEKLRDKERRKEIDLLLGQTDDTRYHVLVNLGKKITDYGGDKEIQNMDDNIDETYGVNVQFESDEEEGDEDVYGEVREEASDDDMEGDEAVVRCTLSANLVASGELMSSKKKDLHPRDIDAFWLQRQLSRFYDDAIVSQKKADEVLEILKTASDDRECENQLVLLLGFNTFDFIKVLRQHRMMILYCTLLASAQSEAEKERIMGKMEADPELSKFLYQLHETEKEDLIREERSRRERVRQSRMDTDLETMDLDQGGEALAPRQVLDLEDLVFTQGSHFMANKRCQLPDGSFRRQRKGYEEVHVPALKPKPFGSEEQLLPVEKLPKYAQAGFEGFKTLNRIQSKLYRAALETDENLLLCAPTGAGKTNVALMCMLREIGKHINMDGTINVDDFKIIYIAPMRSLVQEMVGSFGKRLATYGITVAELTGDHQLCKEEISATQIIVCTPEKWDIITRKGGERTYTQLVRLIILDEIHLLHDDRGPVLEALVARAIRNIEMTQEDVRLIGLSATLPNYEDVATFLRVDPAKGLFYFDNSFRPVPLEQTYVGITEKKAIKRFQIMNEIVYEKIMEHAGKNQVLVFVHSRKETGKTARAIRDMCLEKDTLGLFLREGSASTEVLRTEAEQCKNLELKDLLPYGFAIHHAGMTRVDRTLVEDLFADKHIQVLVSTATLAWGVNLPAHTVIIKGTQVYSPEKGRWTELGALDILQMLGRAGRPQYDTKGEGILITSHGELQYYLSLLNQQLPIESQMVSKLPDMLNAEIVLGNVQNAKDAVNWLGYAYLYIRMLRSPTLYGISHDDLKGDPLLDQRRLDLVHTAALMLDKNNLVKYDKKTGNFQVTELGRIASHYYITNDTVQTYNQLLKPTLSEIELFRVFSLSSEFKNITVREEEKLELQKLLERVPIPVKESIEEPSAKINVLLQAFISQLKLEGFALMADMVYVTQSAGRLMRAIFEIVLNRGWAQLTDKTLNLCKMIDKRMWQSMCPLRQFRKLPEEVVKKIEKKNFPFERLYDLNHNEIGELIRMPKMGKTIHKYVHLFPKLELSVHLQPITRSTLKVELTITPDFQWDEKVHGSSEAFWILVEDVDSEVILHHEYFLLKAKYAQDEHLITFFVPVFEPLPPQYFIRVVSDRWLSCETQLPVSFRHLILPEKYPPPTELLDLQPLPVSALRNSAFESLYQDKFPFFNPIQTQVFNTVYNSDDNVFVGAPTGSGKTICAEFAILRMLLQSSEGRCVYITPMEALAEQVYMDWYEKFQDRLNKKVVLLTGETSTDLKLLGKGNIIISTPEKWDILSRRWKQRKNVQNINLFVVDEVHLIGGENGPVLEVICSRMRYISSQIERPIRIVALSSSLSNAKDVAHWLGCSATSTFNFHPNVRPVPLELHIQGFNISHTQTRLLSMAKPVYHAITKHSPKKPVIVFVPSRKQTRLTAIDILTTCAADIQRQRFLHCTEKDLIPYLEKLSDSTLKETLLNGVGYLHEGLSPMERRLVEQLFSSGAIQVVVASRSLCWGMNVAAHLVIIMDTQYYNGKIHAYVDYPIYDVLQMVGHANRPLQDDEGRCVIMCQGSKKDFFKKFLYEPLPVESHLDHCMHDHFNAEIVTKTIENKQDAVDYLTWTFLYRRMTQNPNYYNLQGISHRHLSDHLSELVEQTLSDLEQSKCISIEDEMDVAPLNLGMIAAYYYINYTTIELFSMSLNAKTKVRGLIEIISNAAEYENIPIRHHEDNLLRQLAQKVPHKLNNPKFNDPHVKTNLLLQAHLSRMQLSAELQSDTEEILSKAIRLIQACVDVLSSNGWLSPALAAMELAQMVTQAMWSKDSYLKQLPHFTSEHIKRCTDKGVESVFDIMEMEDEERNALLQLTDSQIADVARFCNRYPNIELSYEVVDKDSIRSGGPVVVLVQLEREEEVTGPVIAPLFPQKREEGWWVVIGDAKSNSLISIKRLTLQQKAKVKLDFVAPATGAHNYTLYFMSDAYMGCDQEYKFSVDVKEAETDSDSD
Chain of DNA topoisomerase 2-beta (Q02880 whole entry): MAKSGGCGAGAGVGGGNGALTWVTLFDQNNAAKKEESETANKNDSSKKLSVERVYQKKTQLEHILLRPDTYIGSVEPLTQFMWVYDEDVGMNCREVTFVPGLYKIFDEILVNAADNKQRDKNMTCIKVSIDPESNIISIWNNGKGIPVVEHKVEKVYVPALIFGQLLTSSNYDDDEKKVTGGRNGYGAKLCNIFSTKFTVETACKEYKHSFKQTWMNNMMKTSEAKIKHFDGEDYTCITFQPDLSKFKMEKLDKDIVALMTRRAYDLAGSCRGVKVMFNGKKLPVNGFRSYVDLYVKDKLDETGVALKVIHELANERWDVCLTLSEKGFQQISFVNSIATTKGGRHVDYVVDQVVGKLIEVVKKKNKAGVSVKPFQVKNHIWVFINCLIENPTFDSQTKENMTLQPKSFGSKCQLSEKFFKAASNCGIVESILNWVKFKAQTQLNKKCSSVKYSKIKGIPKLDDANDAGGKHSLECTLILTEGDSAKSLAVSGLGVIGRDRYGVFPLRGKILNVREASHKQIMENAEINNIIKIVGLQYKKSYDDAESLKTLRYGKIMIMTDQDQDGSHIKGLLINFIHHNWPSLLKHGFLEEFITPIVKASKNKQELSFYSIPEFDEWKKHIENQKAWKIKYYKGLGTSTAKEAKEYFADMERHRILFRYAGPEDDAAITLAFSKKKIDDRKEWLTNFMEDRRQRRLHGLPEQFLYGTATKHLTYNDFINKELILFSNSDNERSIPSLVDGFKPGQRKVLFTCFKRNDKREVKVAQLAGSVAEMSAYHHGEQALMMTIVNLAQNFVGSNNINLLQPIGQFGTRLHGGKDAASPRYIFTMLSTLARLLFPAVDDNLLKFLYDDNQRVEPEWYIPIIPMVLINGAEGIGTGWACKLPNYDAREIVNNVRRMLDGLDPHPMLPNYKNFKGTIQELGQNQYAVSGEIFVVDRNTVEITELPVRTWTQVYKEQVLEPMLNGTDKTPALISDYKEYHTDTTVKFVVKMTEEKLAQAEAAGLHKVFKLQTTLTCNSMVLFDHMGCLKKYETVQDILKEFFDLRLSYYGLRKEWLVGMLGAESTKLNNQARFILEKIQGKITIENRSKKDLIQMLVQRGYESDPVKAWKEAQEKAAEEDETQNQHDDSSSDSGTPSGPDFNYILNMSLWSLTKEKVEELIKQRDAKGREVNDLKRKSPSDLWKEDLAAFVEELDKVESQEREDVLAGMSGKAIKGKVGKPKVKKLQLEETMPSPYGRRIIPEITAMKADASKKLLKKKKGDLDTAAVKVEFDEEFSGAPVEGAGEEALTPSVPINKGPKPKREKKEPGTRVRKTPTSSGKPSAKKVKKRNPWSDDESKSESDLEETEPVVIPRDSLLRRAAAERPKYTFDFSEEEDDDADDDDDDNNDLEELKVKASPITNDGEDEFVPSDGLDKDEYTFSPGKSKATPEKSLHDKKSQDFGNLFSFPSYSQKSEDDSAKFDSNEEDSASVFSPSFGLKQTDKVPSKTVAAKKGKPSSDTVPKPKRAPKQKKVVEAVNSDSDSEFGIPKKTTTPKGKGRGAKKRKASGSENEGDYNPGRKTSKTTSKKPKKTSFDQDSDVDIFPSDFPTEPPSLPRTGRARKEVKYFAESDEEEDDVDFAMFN

With `COc1cc2ncnc(Oc3cccc(NC(=O)Nc4cc(C(C)(C)C(F)(F)F)on4)c3)c2cc1OC` [CEP-32496], the Kd in [1] is 0.041 µM (active); in assay [2] it was > 30 µM (inactive); in assay [3], > 30 µM (inactive); in assay [4], > 30 µM (inactive); in assay [5], 0.872 µM (active); in assay [6] it was > 30 µM (inactive). Further, the Kd (in assay [7]; in assay [8]; in assay [9]; in [10]; on DNA topoisomerase 2-beta) was > 30 µM (inactive) each time.

As to `COc1c(OCCCN2CCOCC2)ccc2c1N=C(NC(=O)c1cnc(N)nc1)N1CCN=C21` [COPANLISIB], the Kd in [1], in assay [2], in assay [3], in assay [4], in [5] and in assay [6] was > 30 µM (inactive) each time. In addition, the Kd (in [7]; in assay [8]; in [9]; in assay [10]; on DNA topoisomerase 2-beta) was > 30 µM (inactive) throughout.

Consider `COCC(=O)NC/C=C/c1ccc2ncnc(Nc3ccc(Oc4ccc(C)nc4)c(C)c3)c2c1` [CP-724714], for which the Kd in assay [1], in assay [2], in assay [3], in assay [4], in assay [5] and in assay [6] was > 30 µM (inactive) in each case. In addition, the Kd (in assay [7]; in assay [8]; in assay [9]; in assay [10]; on DNA topoisomerase 2-beta) was > 30 µM (inactive) each time.

With `C#Cc1cccc(Nc2ncnc3cc(OC)c(OCCCCCCC(=O)NO)cc23)c1` [CUDC-101], the Kd in assay [1], in assay [2], in assay [3], in assay [4], in [5] and in assay [6] was > 30 µM (inactive) in each case. For the same compound, the Kd (in assay [7]; in [8]; in assay [9]; in assay [10]; at DNA topoisomerase 2-beta) was > 30 µM (inactive) in each case.

For `CCS(=O)(=O)N1CCN(c2ccc(Nc3ncc(C(N)=O)c(NC4CC4)n3)cc2)CC1` [Cerdulatinib Hydrochloride], the Kd is > 30 µM (inactive) in [1]; > 30 µM (inactive) in [2]; > 30 µM (inactive) in [3]; 1.48 µM (active) in assay [4]; > 30 µM (inactive) in assay [5]; > 30 µM (inactive) in assay [6]. The Kd (in [7]; in [8]; in assay [9]; in assay [10]; on DNA topoisomerase 2-beta) was > 30 µM (inactive) in each case.

Consider `Cc1nc2cc(-n3ncc(C(=O)c4cc5ccccc5[nH]4)c3N)ccc2[nH]1` [FGFR INHIBITOR DEBIO 1347], for which the Kd in assay [1], in assay [2], in [3], in [4], in assay [5] and in [6] was > 30 µM (inactive) each time. Besides, the Kd (in assay [7]; in [8]; in [9]; in assay [10]; on DNA topoisomerase 2-beta) was > 30 µM (inactive) in each case.

As for `O=C(Nc1nc2cccc(-c3ccc(CN4CCS(=O)(=O)CC4)cc3)n2n1)C1CC1` [FILGOTINIB], the Kd in assay [1], in assay [2], in assay [3], in [4], in [5] and in [6] was > 30 µM (inactive) each time. Further, the Kd (in assay [7]; in [8]; in assay [9]; in assay [10]; on DNA topoisomerase 2-beta) was > 30 µM (inactive) throughout.

On to `Cc1cccc(-c2nn3c(c2-c2ccnc4ccc(C(N)=O)cc24)CCC3)n1` [GALUNISERTIB], for which the Kd in assay [1], in [2], in assay [3], in [4], in assay [5] and in assay [6] was > 30 µM (inactive) in each case. In addition, the Kd (in [7]; in assay [8]; in assay [9]; in assay [10]; at DNA topoisomerase 2-beta) was > 30 µM (inactive) each time.

With `CCn1cc(-c2ccnc3[nH]c(-c4cccc(CN(C)C)c4)cc23)c(-c2ccc(NC(=O)N(C)C)cc2)n1` [GSK-1070916], the Kd in assay [1], in assay [2], in [3], in assay [4], in assay [5] and in assay [6] was > 30 µM (inactive) throughout. Besides, the Kd (in assay [7]; in assay [8]; in [9]; in assay [10]; on DNA topoisomerase 2-beta) was > 30 µM (inactive) each time.

The record behind these values is ChEMBL document CHEMBL3991601, “The target landscape of clinical kinase drugs” (Science, 2017).
